For one molecule, ring closure, yield of all isomers results are on record in patent publication US8796474.

The conditions of the series: from CC[C@@H](O)C(C)=C=C[C@@H](OCc1ccccc1)[C@H](C)CC(C)=C=C[C@H](OCc1ccccc1)[C@@H](C)C(=O)O; ester bond; 2,4,6-trichlorobenzoyl chloride / TEA / DMAP (Yamaguchi); toluene; 3.18 mM; 80.0 °C; 8.0 h.

The molecule `CC[C@H]1OC(=O)[C@H](C)[C@@H](OCc2ccccc2)C=C=C(C)C[C@@H](C)[C@H](OCc2ccccc2)C=C=C1C` displayed a ring closure, yield of all isomers of 64%.
